{"source": "PubChem BioAssay AID720589", "about": "(Broad Institute, 2013)", "test_system": "HepG2 viability, ATP luminescence (CellTiter-Glo), 72 h", "assay": "HepG2 hepatoma cell cytotoxicity, dose response, cytotoxicity control, CellTiter-Glo luminescence, cherry-pick, set 3 (AID 720589)"}
{"smiles": "Nc1nc(N)c(-c2cccc(C(F)(F)F)c2)c(Cc2cccc(C(F)(F)F)c2)n1", "values": [{"measurement": "AC35", "result": 4.53, "unit": "µM"}]}
{"smiles": "C=CCOC(=O)c1sc(NC(=O)c2ccc(OC)cc2)nc1C", "values": [{"measurement": "AC35", "result": 6.33, "unit": "µM"}]}
{"smiles": "Nc1ccn([C@@H]2O[C@H](CO)[C@@H](O)C2O)c(=O)n1", "note": "(some centres undefined)", "values": [{"measurement": "AC35", "result": 0.477, "unit": "µM"}]}
{"smiles": "COc1cc2c(OC(C)=O)c3c(c(-c4ccc5c(c4)OCO5)c2cc1OC)C(=O)OC3", "values": [{"measurement": "AC35", "result": 0.465, "unit": "µM"}]}
{"smiles": "COC1C(O)C(C)OC(OC2C(Oc3cccc4c(O)c5c(=O)oc6ccc(C)c7c(=O)oc(c34)c5c67)OC(C)C(O)C2O)C1O", "note": "(centres undefined)", "values": [{"measurement": "AC35", "result": 14.3, "unit": "µM"}]}
{"smiles": "C[C@H]1CN([C@@H](C)CO)S(=O)(=O)c2ccc(C#CC(C)(C)O)cc2O[C@@H]1CN(C)Cc1ccc(-c2ccccc2)cc1", "values": [{"measurement": "AC35", "result": 0.689, "unit": "µM"}]}
{"smiles": "COC1C(O)C(C)OC(OC2CCC3(C)C(CCC4C3C(O)CC3(C)C(C5=CC(=O)OC5)CCC43O)C2)C1O", "note": "(centres undefined)", "values": [{"measurement": "AC35", "result": 0.204, "unit": "µM"}]}
{"smiles": "O=C1NC(=O)N(Cc2ccc(F)cc2)C(=O)/C1=C\\C=C\\c1ccco1", "values": [{"measurement": "AC35", "result": 9.05, "unit": "µM"}]}
{"smiles": "CCN1/C(=C/C=C/c2oc3ccc(-c4ccccc4)cc3[n+]2CC)Oc2ccc(-c3ccccc3)cc21", "values": [{"measurement": "AC35", "result": 2.37, "unit": "µM"}]}
{"smiles": "CN(C)c1ccc(/C=N/Nc2nc3ccccc3o2)cc1", "values": [{"measurement": "AC35", "result": 18.2, "unit": "µM"}]}
{"smiles": "O=C(CCc1ccccc1)NC(c1cccs1)c1cc(Cl)c2cccnc2c1O", "note": "(centres undefined)", "values": [{"measurement": "AC35", "result": 7.07, "unit": "µM"}]}
{"smiles": "Nc1cc2c(cc1Br)[nH]c(=O)c1ccccc12", "values": [{"measurement": "AC35", "result": 19.2, "unit": "µM"}]}
{"smiles": "C[C@@H]1O[C@@H](O[C@@H]2C=C3CCC4C(CC[C@]5(C)[C@@H](c6ccc(=O)oc6)CC[C@]45O)[C@@]3(C)CC2)[C@H](O)[C@H](O)[C@H]1O", "note": "(some centres undefined)", "values": [{"measurement": "AC35", "result": 0.068, "unit": "µM"}]}
{"smiles": "CCN(CC)C(=O)CN1C(=O)C(=O)c2ccccc21", "values": [{"measurement": "AC35", "result": 7.54, "unit": "µM"}]}
{"smiles": "CC1(C)N=C(N)N=C(N)N1c1ccc(CCCCc2ccccc2)cc1", "values": [{"measurement": "AC35", "result": 2.08, "unit": "µM"}]}
{"smiles": "COC(=O)Cc1[nH]n(-c2nc3ccccc3s2)c(=O)c1C(C)=Nc1ccc(C)cc1", "values": [{"measurement": "AC35", "result": 17.8, "unit": "µM"}]}
{"smiles": "C[C@@H]1CN([C@@H](C)CO)C(=O)c2cc(NS(=O)(=O)c3ccccc3)ccc2O[C@@H]1CN(C)Cc1ccc(C(=O)Nc2ccccc2N)cc1", "values": [{"measurement": "AC35", "result": 7.52, "unit": "µM"}]}
{"smiles": "C=C1C(=O)OC2C1CCC(C)C1C=CC(=O)C12C", "note": "(centres undefined)", "values": [{"measurement": "AC35", "result": 9.29, "unit": "µM"}]}
{"smiles": "CN=c1scc(-c2cccs2)n1/N=C/c1ccccc1O", "values": [{"measurement": "AC35", "result": 20.8, "unit": "µM"}]}
{"smiles": "CCc1ccc(/C=C2\\SC(=S)N(CCCC(=O)N3CCN(C)CC3)C2=O)cc1", "values": [{"measurement": "AC35", "result": 8.6, "unit": "µM"}]}
{"smiles": "CC[C@@H]1C[C@H]2CC[C@H](O2)[C@H](C)C(=O)O[C@@H](C)C[C@@H]2CC[C@@H](O2)[C@@H](C)C(=O)O[C@H](C)C[C@H]2CC[C@H](O2)[C@H](C)C(=O)O[C@@H](C)C[C@@H]2CC[C@@H](O2)[C@@H](C)C(=O)O1", "values": [{"measurement": "AC35", "result": 0.506, "unit": "µM"}]}
{"smiles": "C[C@H]1CN([C@@H](C)CO)S(=O)(=O)c2ccc(C#Cc3ccncc3)cc2O[C@@H]1CN(C)C(=O)Nc1ccc2c(c1)OCO2", "values": [{"measurement": "AC35", "result": 0.902, "unit": "µM"}]}
{"smiles": "C[C@@H]1CN([C@@H](C)CO)C(=O)Cc2cc(NC(=O)C3CCCCC3)ccc2O[C@H]1CN(C)Cc1ccc(C(=O)Nc2ccccc2N)cc1", "values": [{"measurement": "AC35", "result": 0.83, "unit": "µM"}]}
{"smiles": "CN(C)c1ccc(C=c2c3ccccc3n3c2c2c([n+]3C)CCCC2)cc1", "values": [{"measurement": "AC35", "result": 2.14, "unit": "µM"}]}
{"smiles": "COc1cc(/C=N/NC(=O)c2csc3c2CCCC3)cc(OC)c1O", "values": [{"measurement": "AC35", "result": 20, "unit": "µM"}]}
{"smiles": "C[C@H]1O[C@@H](O[C@H]2[C@@H](O)C[C@H](O[C@H]3[C@@H](O)C[C@H](O[C@H]4CC[C@@]5(C)[C@H](CC[C@@H]6[C@@H]5C[C@@H](O)[C@]5(C)[C@@H](C7=CC(=O)OC7)CC[C@]65O)C4)O[C@@H]3C)O[C@@H]2C)C[C@H](O)[C@@H]1O", "values": [{"measurement": "AC35", "result": 0.155, "unit": "µM"}]}
{"smiles": "C=C(C(=O)c1ccccc1)C(C)C(=C)C(=O)c1ccccc1", "values": [{"measurement": "AC35", "result": 10.2, "unit": "µM"}]}
{"smiles": "COc1cccc(-c2cc(NC=O)c3ncc(-c4ccc(C(C)=O)cc4)n3c2)c1", "values": [{"measurement": "AC35", "result": 15.5, "unit": "µM"}]}
{"smiles": "CC(=NNc1ccc2ccccc2n1)c1ccccn1", "values": [{"measurement": "AC35", "result": 1.53, "unit": "µM"}]}
{"smiles": "C[C@@H]1CN([C@H](C)CO)C(=O)c2cc(NC(=O)Nc3ccccc3)ccc2O[C@@H]1CN(C)Cc1ccc(C(=O)Nc2ccccc2N)cc1", "values": [{"measurement": "AC35", "result": 8.38, "unit": "µM"}]}
{"smiles": "CN(C)c1ccc(N=Nc2nc3ccccc3n2C)cc1", "values": [{"measurement": "AC35", "result": 12, "unit": "µM"}]}
{"smiles": "O=C(NC[C@@H]1N[C@@H](CO)[C@H]1c1ccc(C2=CCCCC2)cc1)c1cccc(F)c1", "values": [{"measurement": "AC35", "result": 7.71, "unit": "µM"}]}
{"smiles": "O=c1cc(CN2CCN(Cc3ccccc3)CC2)c2ccc(O)c(O)c2o1", "values": [{"measurement": "AC35", "result": 10.3, "unit": "µM"}]}
{"smiles": "Cc1nc(N)nc(N)c1/C=C/C(C)(C)c1ccc(Cl)cc1", "values": [{"measurement": "AC35", "result": "< 0.011", "unit": "µM"}]}
{"smiles": "CO[C@H]1CN(C)C(=O)c2ccc(NC(=O)c3ccc(-c4ccccc4)cc3)cc2OC[C@H](C)NC[C@H]1C", "values": [{"measurement": "AC35", "result": 6.36, "unit": "µM"}]}
{"smiles": "Cc1ccc(C(=O)O/N=C(\\N)c2ccccn2)cc1", "values": [{"measurement": "AC35", "result": 13.2, "unit": "µM"}]}
{"smiles": "CN(C)c1ncnc2c1ccn2C1OC(CO)C(O)C1O", "note": "(centres undefined)", "values": [{"measurement": "AC35", "result": 0.178, "unit": "µM"}]}
{"smiles": "CCN1C/C(=C/c2ccc(N3CCOCC3)cc2)C(=O)/C(=C/c2ccc(N3CCOCC3)cc2)C1", "values": [{"measurement": "AC35", "result": 10.5, "unit": "µM"}]}
{"smiles": "Cc1noc(C)c1NC(=O)Nc1ccc2c(c1)CC(=O)N([C@H](C)CO)C[C@@H](C)[C@@H](CN(C)Cc1ccc(Cl)c(Cl)c1)O2", "values": [{"measurement": "AC35", "result": 7.54, "unit": "µM"}]}
